{"source": "paper PMC10295897", "about": "“A Novel MDM2-Binding Chalcone Induces Apoptosis of Oral Squamous Cell Carcinoma” (Biomedicines, 2023)", "key": {"[1]": {"system": "SCC4 cells", "test": "MTT cell viability assay, SCC4 cells", "format": "cell-based, human", "method": "(§1) Human SCC-4, SCC-9, and SCC-25 cells derived from a human oral tongue SCC (squamous cell carcinoma) were obtained from the ATCC (CRL-1624, CRL-1629, and CRL-1628, respectively) and maintained in 1:1 DMEM/F12 (Dulbecco’s modified Eagle medium and Ham’s F12 medium; Gibco (Thermo Fisher, Waltham, MA, USA)) supplemented with 10% (v/v) FBS (fetal bovine serum; Invitrogen, Thermo Fisher, Waltham, MA, USA) and 400 ng/mL hydrocortisone (Sigma-Aldrich Co., St. Louis, MO, USA). Primary normal human gingival fibroblasts were obtained from the ATCC (PCS-201-018; HGF) and maintained in DMEM supplemented with 10% (v/v) FBS and were used in a maximum of six passages. The cells were grown in a humidified environment containing 5% CO2 at 37 °C. For all biological experiments, the compounds and control nutlin 3a were solubilized in 100% DMSO (all Sigma-Aldrich) to a final concentration of 10 mM. Carboplatin stock was prepared in water (Fauldcarbo®; LibbsFarmacêutica, São Paulo, SP, Brazil) and was used as a standard anticancer compound.\n(§2) The viability of SCC cell lines, HT-29, HCT-116, HEP2G and primary human fibroblast cells was evaluated using the MTT assay as in [26]. Briefly, the cells were grown in duplicates in 96-well plates (5 × 10^3 cells/well) until confluence. Then, the medium was removed, fresh medium was added, and the cells were returned to the incubator in the presence of different compounds. DMSO at the same concentrations was used as a 100% cell viability control. After 48 h, the cells were incubated with 5 mg/mL MTT reagent (3-(4,5-dimethyl-2-thiazolyl)-2,5-diphenyl-2-H-tetrazolium bromide) (Sigma-Aldrich Co., St. Louis, MO, USA) for 3.5 h. After that, formazan crystals were dissolved in MTT solvent solution (DMSO/methanol 1:1 v/v), and the absorbance at 560 nm was evaluated using an EPOCH microplate spectrophotometer (BioTek Instruments, Winooski, VT, USA) with the background absorbance at 670 nm subtracted. Each of the six compounds was tested at six or seven different concentrations, ranging from 0.3 µM to 200 µM in cancer cell lines (SCC-4, SCC-9 and SCC-25) and 0.3 µM to 200 µM in primary normal human gingival fibroblasts. Controls (carboplatin, nutlin 3a) were tested at six or seven different concentrations ranging from 0.05 µM to 1000 µM in cancer cells and normal cells, depending on the compound.\n(§3) The data are presented as means ± SD. IC values for the MTT assays were obtained by nonlinear regression using the […] 5.0 program (Intuitive Software for Science, San Diego, CA, USA) from at least three independent experiments. A dose–response (inhibitor) vs. response curve using the least squares method was used to determine the IC50, SD, and R^2 of the data. The selectivity index was calculated as SI = IC50 of the compound in normal oral fibroblast cells/IC50 of the same compound for each cancer cell line (SCC-4, SCC-9, SCC-25, HCT-116, HT29 and HEP2G), and the mean was calculated when indicated."}, "[2]": {"system": "HEP2G (hepatocarcinoma)", "test": "MTT cell viability assay, HEP2G", "format": "cell-based", "details": "48 h", "method": "as §2, with “Each of the six compounds was tested at six or seven different concentrations, ranging from 0.3 µM to 200 µM in cancer cell lines (SCC-4, SCC-9 and SCC-25) and 0.3 µM to 200 µM in primary normal human gingival fibroblasts. Controls (carboplatin, nutlin 3a) were tested at six or seven different concentrations ranging from 0.05 µM to 1000 µM in cancer cells and normal cells, depending on the compound.” left out\nThe data are presented as means ± SD. […] The selectivity index was calculated as SI = IC50 of the compound in normal oral fibroblast cells/IC50 of the same compound for each cancer cell line (SCC-4, SCC-9, SCC-25, HCT-116, HT29 and HEP2G), and the mean was calculated when indicated."}, "[3]": {"test": "Solubility observed during in vitro testing", "format": "physicochemical", "details": "in vitro cytotoxicity testing"}, "[4]": {"system": "SCC9 cells", "test": "Cell cycle and SubG1 analysis (PI flow cytometry)", "format": "cell-based, human", "details": "SCC9, 2 × IC50, 48 h, PI staining", "method": "To evaluate the action of compound 1f on the cell cycle and DNA fragmentation, SCC9 cell line cells were plated in a 6-well plate (5 × 10^5 cells/well). After 48 h of treatment, the cells were trypsinized and stained with propidium iodide (75 µM) in the presence of NP-40. The DNA content was analyzed by collecting 10,000 events using a FACScalibur flow cytometer. The data were analyzed using CellQuest (BD Biosciences, Franklin Lakes, NJ, USA) and FlowJo (Tree Star Inc., Ashland, OR, USA) software as in [34]."}, "[5]": {"system": "Oral Tumor Cells (SCC9, SCC25, SCC4)", "test": "MTT assay, average over oral tumor cells", "format": "cell-based, human", "method": "as §2, §3"}, "[6]": {"system": "SCC25 cells", "test": "MTT cell viability assay, SCC25 cells", "format": "cell-based, human", "method": "as §1, §2, §3"}, "[7]": {"system": "SCC9 cells", "test": "Annexin V-FITC/PI apoptosis flow cytometry", "format": "cell-based, human", "details": "SCC9, 2 × IC50, 48 h", "method": "(§4) Cells of the SCC9 cell line were plated in 6-well plates (5 × 10^5 cells/well), trypsinized 48 h after treatment, labeled using the Annexin V-FITC Apoptosis Detection Kit according to the manufacturer’s protocol (#BMS500FI/300, Invitrogen), and analyzed by FACScalibur flow cytometry as in [35]. Furthermore, 5 × 10^4 SCC-9 cells were plated in a 24-well plate containing 1 mL of DMEM/F12 with 10% FBS per well. CellEvent™ Caspase-3/7 Reagent (#R37111, Invitrogen) was diluted in a culture medium according to the manufacturer’s instructions. […] The cells were analyzed by flow cytometry after 48 h of treatment."}, "[8]": {"system": "SCC9 cells", "test": "MTT cell viability assay, SCC9 oral cancer cells", "format": "cell-based, human", "details": "for IC50: Homo sapiens, SCC-9, 48 h, MTT", "method": "as §1, §2, §3\nInitially, the six chalcones (1a–f) were submitted to the MTT assay to evaluate their cytotoxicity. The assay was performed using the oral cancer cell line SCC9, and the results were analyzed by a non-linear regression curve to determine the value of the half maximal inhibitory concentration (IC50). As controls, known chemotherapeutic agents were used, namely carboplatin, routinely used in the treatment of oral cancer, and doxorubicin, widely used for other types of cancers."}, "[9]": {"system": "SCC-9 cells", "test": "Caspase-3/7 flow cytometry", "format": "cell-based, human", "details": "SCC9, 2 × IC50, 48 h", "method": "as §4"}}, "note": "Like-named read-outs stand apart in the source and are kept apart here.", "data": [{"smiles": "Cc1cccc(C)c1-n1cc(/C=C/C(=O)c2ccccc2N)nn1", "note": "[1f, (E)-1-(2-Aminophenyl)-3-(1-(2,6-dimethylphenyl)-1H-1,2,3-triazol-4-yl)prop-2-en-1-one]", "values": [{"measurement": "IC50", "setting": "[1]; Homo sapiens, SCC-4, 48 h, MTT", "result": 4.73, "unit": "µM"}, {"measurement": "SCC4 S.I.", "setting": "[1]; selective index = IC50 HGF / IC50 SCC4", "result": 6.25}, {"measurement": "IC50", "setting": "[2]", "result": 39.4, "unit": "µM"}, {"measurement": "solubility (in words)", "setting": "[3]", "result": "highly soluble"}, {"measurement": "cells in G2/M phase", "setting": "[4]", "result": 44.0, "unit": "%"}, {"measurement": "fragmentation of DNA (Sub-G1 DNA-content)", "setting": "[4]", "result": 23.3, "unit": "%"}, {"measurement": "IC50", "setting": "[5]; Homo sapiens, mean of SCC9, SCC25, SCC4", "result": 4.54, "unit": "µM"}, {"measurement": "Average S.I.", "setting": "[5]; IC50 of normal primary fibroblasts / average IC50 of tumor cells", "result": 6.51}, {"measurement": "IC50", "setting": "[6]; Homo sapiens, SCC-25, 48 h, MTT", "result": 5.03, "unit": "µM"}, {"measurement": "SCC25 S.I.", "setting": "[6]; selective index = IC50 HGF / IC50 SCC25", "result": 5.88}, {"measurement": "phosphatidylserine exposure", "setting": "[7]", "result": 43.0, "unit": "%"}, {"measurement": "IC50", "setting": "[8]; 48 h, read-out: SCC9 IC50", "result": 3.87, "unit": "µM"}, {"measurement": "IC50", "setting": "[8]; SCC9, 48 h, read-out: IC50", "result": 3.87, "unit": "µM"}, {"measurement": "SCC9 S.I.", "setting": "[8]; selective index = IC50 HGF / IC50 SCC9", "result": 7.63}, {"measurement": "caspase 3/7 activity", "setting": "[9]", "result": 47.5, "unit": "%"}]}]}
